Test results published in ChEMBL document CHEMBL1201862, “PubChem BioAssay data set” (2004).
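Tested at 5 concentrations; 48 h exposure; 96-well plates; endpoints linearly interpolated, else capped at highest concentration. Here, GI50 denotes the concentration required for 50% inhibition of growth.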 Activity calls are given as the source filed them. Rule as the data show it: active = GI50 up to about 1.1 µM and inactive = higher.

How the values were obtained:
Assay in all cases: growth of human tumour cells (NCI), 48 h
A498 = system: A498
COLO 205 = system: COLO 205
HOP-92 = system: HOP-92
SK-MEL-5 = system: SK-MEL-5
MCF7 = system: MCF7
SF-268 = system: SF-268
Malme-3M = system: Malme-3M
OVCAR-3 = system: OVCAR-3
HOP-62 = system: HOP-62
MDA-N = system: MDA-N
SK-MEL-28 = system: SK-MEL-28
HCC 2998 = system: HCC 2998
PC-3 = system: PC-3
MDA-MB-435 = system: MDA-MB-435
NCI-H23 = system: NCI-H23
UACC-62 = system: UACC-62
OVCAR-5 = system: OVCAR-5
SN12C = system: SN12C
HL-60 = system: HL-60
NCI-H522 = system: NCI-H522

Measured: GI50

Cc1c(C)c(C)c(CSC(=N)N)c(C)c1C
inactive: A498 16.2 µM | COLO 205 14.9 µM | HOP-92 14 µM | SK-MEL-5 13.7 µM | MCF7 17.1 µM | SF-268 18.3 µM | Malme-3M 15.9 µM | OVCAR-3 16.5 µM | HOP-62 15.5 µM | MDA-N 16.9 µM | SK-MEL-28 15.4 µM | HCC 2998 14.7 µM | PC-3 12.2 µM | MDA-MB-435 14.2 µM | NCI-H23 16.5 µM | UACC-62 11.9 µM | OVCAR-5 14.5 µM | SN12C 16.3 µM | HL-60 8.57 µM | NCI-H522 16.3 µM

CCCCc1ccc(Nc2nc(N)c3[nH]cnc3n2)cc1
inactive: A498 11.2 µM | COLO 205 18.3 µM | HOP-92 15.5 µM | SK-MEL-5 17 µM | MCF7 18.4 µM | SF-268 14.9 µM | Malme-3M 22.2 µM | OVCAR-3 20.7 µM | MDA-N 16.9 µM | SK-MEL-28 22.5 µM | HCC 2998 24 µM | PC-3 15 µM | MDA-MB-435 21.5 µM | NCI-H23 17.1 µM | UACC-62 17.2 µM | OVCAR-5 30.5 µM | SN12C 13.9 µM | HL-60 18.7 µM | NCI-H522 14.7 µM

C[C@]12C[C@H](c3ccccc3)Nc3ccccc3N1C(c1ccccc1)=NO2
inactive: A498 > 100 µM | COLO 205 78.7 µM | HOP-92 30.1 µM | SK-MEL-5 30.1 µM | MCF7 52.6 µM | SF-268 > 100 µM | Malme-3M 44.3 µM | OVCAR-3 28.5 µM | HOP-62 > 100 µM | MDA-N 74.1 µM | HCC 2998 > 100 µM | PC-3 40.4 µM | MDA-MB-435 35.5 µM | NCI-H23 62.1 µM | UACC-62 85.1 µM | OVCAR-5 > 100 µM | SN12C > 100 µM | HL-60 74.6 µM | NCI-H522 > 100 µM

COc1cc2c(cc1O)C1CC(CC3CCCCN31)OC(=O)/C=C\c1ccc(O)c-2c1 (stereo unspecified)
inactive: A498 12.9 µM | COLO 205 25.2 µM | HOP-92 15.5 µM | SK-MEL-5 16.8 µM | MCF7 13.9 µM | SF-268 24.9 µM | Malme-3M 19.5 µM | OVCAR-3 21.3 µM | MDA-N 35.9 µM | SK-MEL-28 28.3 µM | HCC 2998 18.2 µM | PC-3 28.5 µM | MDA-MB-435 21.9 µM | NCI-H23 64 µM | UACC-62 18 µM | OVCAR-5 58.3 µM | SN12C 37.2 µM | HL-60 27.8 µM | NCI-H522 26.5 µM

CC(=O)Nc1sc(Br)cc1S(=O)(=O)c1ccc(Cl)cc1
inactive: A498 47.2 µM | COLO 205 > 10 µM | HOP-92 20.1 µM | SK-MEL-5 > 10 µM | MCF7 12.8 µM | SF-268 30.1 µM | Malme-3M 32.1 µM | OVCAR-3 20.5 µM | MDA-N 43.5 µM | SK-MEL-28 57.3 µM | HCC 2998 19.4 µM | PC-3 17.9 µM | MDA-MB-435 28.1 µM | NCI-H23 29.4 µM | UACC-62 38.1 µM | OVCAR-5 26.2 µM | SN12C 71.9 µM | HL-60 21.9 µM | NCI-H522 19.3 µM

Cc1nc2c(=S)[nH]ncc2[nH]1
inactive: A498 > 100 µM | COLO 205 > 100 µM | HOP-92 > 100 µM | SK-MEL-5 > 100 µM | MCF7 > 100 µM | Malme-3M 94.8 µM | OVCAR-3 > 100 µM | HOP-62 > 100 µM | MDA-N > 100 µM | SK-MEL-28 > 100 µM | HCC 2998 > 100 µM | PC-3 > 100 µM | MDA-MB-435 > 100 µM | NCI-H23 > 100 µM | UACC-62 > 100 µM | OVCAR-5 > 100 µM | SN12C > 100 µM | HL-60 > 100 µM | NCI-H522 > 100 µM

CC(C)(C)OC(=O)C1/C(=C/CBr)CN1C(=O)OC(C)(C)C (stereo unspecified)
inactive: A498 16.4 µM | COLO 205 2.56 µM | HOP-92 13.9 µM | SK-MEL-5 14.3 µM | MCF7 3.76 µM | SF-268 4.85 µM | Malme-3M 18 µM | OVCAR-3 14.7 µM | HOP-62 15.8 µM | MDA-N 14.7 µM | SK-MEL-28 17.7 µM | HCC 2998 16.9 µM | PC-3 14.3 µM | MDA-MB-435 12.9 µM | NCI-H23 10.5 µM | UACC-62 15.3 µM | OVCAR-5 18.7 µM | SN12C 12.6 µM | HL-60 2.66 µM

Clc1ccc(C2=NN=C3C(c4ccccc4)=Nc4ccccc4N3C2)cc1
inactive: A498 56.1 µM | COLO 205 5.68 µM | HOP-92 > 25.1 µM | SK-MEL-5 3.27 µM | MCF7 4.4 µM | SF-268 2.88 µM | Malme-3M 5.45 µM | OVCAR-3 2.02 µM | HOP-62 10.8 µM | MDA-N 7.03 µM | SK-MEL-28 37.5 µM | HCC 2998 17.9 µM | PC-3 8.61 µM | MDA-MB-435 4.72 µM | NCI-H23 16.3 µM | UACC-62 5.3 µM | SN12C 20.9 µM | HL-60 2.56 µM | NCI-H522 2.75 µM

CC(C)(C)NC(=O)/C(=C\Sc1ccccc1)c1ccc2c(c1)OCO2
inactive: A498 20.4 µM | COLO 205 22.4 µM | HOP-92 15.5 µM | SK-MEL-5 17.6 µM | MCF7 26.1 µM | SF-268 16.2 µM | OVCAR-3 30.8 µM | HOP-62 44.3 µM | MDA-N 22.8 µM | SK-MEL-28 49 µM | HCC 2998 37.3 µM | PC-3 22.5 µM | MDA-MB-435 22.2 µM | NCI-H23 35.3 µM | UACC-62 19.8 µM | OVCAR-5 30.6 µM | SN12C 26.7 µM | HL-60 18.7 µM | NCI-H522 17.9 µM

CCOc1ccnc2c(OC)c(C)c3nc4ccccc4nc3c12
inactive: A498 > 100 µM | COLO 205 > 100 µM | HOP-92 93.8 µM | SK-MEL-5 > 100 µM | MCF7 26 µM | SF-268 > 100 µM | Malme-3M > 100 µM | OVCAR-3 > 100 µM | HOP-62 > 100 µM | MDA-N > 100 µM | SK-MEL-28 > 100 µM | HCC 2998 > 100 µM | PC-3 89.3 µM | MDA-MB-435 > 100 µM | NCI-H23 > 100 µM | OVCAR-5 > 100 µM | SN12C > 100 µM | HL-60 > 100 µM | NCI-H522 > 100 µM
